Data published in patent US10329304B2, “Compounds and methods for inhibition of hedgehog signaling and phosphodiesterase” (Vanderbilt University, priority 2014, dated 2019).
Where “and” joins values, the source holds several entries; their conditions need not be identical. Equal values may be shown once. Entries after “also recorded” stand apart in the source; their conditions may differ. Read-outs that look alike come from different tables or passages of the source.

Experiments:
zebrafish embryos = experiment: Zebrafish embryo phenotypic assay (ZF); type: in vivo; conditions: for Hh-deficient mutant phenotype in embryos: 2 μM from 4 hpf where stated
In short: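 Phenotype scored by gross morphology at 24, 48 and 72 hours post-fertilization. Compound added at 5 hpf, from 1 mM or 10 mM stocks in DMSO, to about 10 wild-type AB embryos in E3 water. In the original screen, 5 μM final was applied near 4 hpf at 28.5 °C.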

PDE4D2 = target: T1, PDE4D2 (Homo sapiens, UniProt Q08499); experiment: In vitro PDE assay; type: biochemical; conditions: for IC50: Table 9A
T1 construct: purchased BPS Biosciences (San Diego, Calif.)
In short: (§1)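 Fluorescence polarization readout: FAM-AMP formed from 100 nM FAM-cAMP binds nano-bead agent (60 min) and is read at ex 485/em 528 nm. Enzyme reactions ran 60 min at room temperature in duplicate, Tris-HCl pH 7.4 buffer with 10 mM MgCl2 and 0.05% Tween 20, compound in 1% final DMSO.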

PDE4D3 = target: T2, PDE4D3 (Homo sapiens, UniProt Q08499); experiment: In vitro PDE assay; type: biochemical; conditions: for IC50: Table 9A; for Mode of inhibition (Lineweaver-Burk, Eadie Hofstee): purified PDE4D3
T2 construct: purchased BPS Biosciences (San Diego, Calif.); kinetic studies by Millipore (St. Louis, Mo.)
In short: as §1

H82 = experiment: Cell killing EC50 in H82 lung cancer cells (Table 10); type: cell-based; conditions: human cancer cells
Procedure: It is anticipated that compounds disclosed herein could serve as an anti-tumor, anti-angiogenic, anti-metastatic, agent in the treatment of cancer. To this end, a series of clinically relevant cancer lines were assayed and the cell-killing EC50s for compounds according to the subject matter disclosed herein are provided in Table 10.

[1] = system: Hedgehog signaling (Gli-Luc reporter); experiment: Hh Gli-Luciferase reporter assay in Shh-Light2 cells; type: cell-based, mouse; conditions: for Sonic hedgehog (SHH)-responsive Gli-luciferase reporter activity: Shh-conditioned media; for Purmorphamine-induced Gli-Luc reporter activity: purmorphamine 3 μM; for EC50 / IC50: Mus musculus, Shh Light2; for EC50: Table 9A, read-out: Shh Light2 Luc EC50
In short: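 Steady-Glo luminescence, corrected for cell titer by CellTiter-Glo, was measured after overnight exposure to compound concentrations. Signaling in Gli-Luc Shh-Light2 cells came either from Shh-conditioned medium, 3 μM purmorphamine or 20 nM SAG, or from transfected Gli-2, PDE4D3 or DN-PDE4D3 constructs.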

MCF7 = experiment: Cell viability assay (CellTiter-Blue, 72 hr); type: cell-based; conditions: human cancer cells
Procedure: (§2) Cancer cell lines were seeded in 96 well tissue culture plate at a low density (10,000 cells per well) and treated with varying concentrations of Eggmanone. After 72 hr incubation, CellTiter-Blue Cell Viability Assay (Promega, Madison, Wis.) was then performed according to manufacturer's protocol. Absorbance was then measured in a Modulus Microplate reader (Promega, Madison, Wis.) at 590 nm and compared to cells treated with DMSO.
as §2, with “density” for “density (10,000 cells per well)”, “compounds identified in Table 7.” for “Eggmanone.”

HeLa = experiment: Cell viability assay (CellTiter-Blue, 72 hr); type: cell-based, Human
In short: (§3)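 Viability of sparsely plated cells (10,000/well) after dosing across a concentration series was determined from 590 nm absorbance, referenced to vehicle (DMSO) controls.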

DU145 = experiment: Cell viability assay (CellTiter-Blue, 72 hr); type: cell-based, Human
In short: as §3

SW480 = experiment: Cell viability assay (CellTiter-Blue, 72 hr); type: cell-based, Human; conditions: SW480; human cancer cells; read-out: CELL KILLING EC50 (μM) Colon SW480
In short: as §3

PDE4D = PDE4D (Homo sapiens, UniProt Q08499); experiment: PDE4 inhibition assay (PDE4D IC50); type: biochemical; conditions: read-out: PDE4D IC50
In short: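 Duplicate 60 min room-temperature reactions hold 100 nM FAM-cAMP substrate, PDE4D enzyme and test compound at 1% final DMSO in pH7.4 Tris buffer. Product FAM-AMP captured by bead binding agent (60 min), with fluorescence read at excitation 485, emission 528 nm.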

[2] = human cancer cells, read-out: CELL KILLING EC50 (μM) Cervix HeLa
[3] = DU-145, human cancer cells, read-out: CELL KILLING EC50 (μM) Prostate DU145

T2 sequence (Q08499 1-673 isoform Q08499-2): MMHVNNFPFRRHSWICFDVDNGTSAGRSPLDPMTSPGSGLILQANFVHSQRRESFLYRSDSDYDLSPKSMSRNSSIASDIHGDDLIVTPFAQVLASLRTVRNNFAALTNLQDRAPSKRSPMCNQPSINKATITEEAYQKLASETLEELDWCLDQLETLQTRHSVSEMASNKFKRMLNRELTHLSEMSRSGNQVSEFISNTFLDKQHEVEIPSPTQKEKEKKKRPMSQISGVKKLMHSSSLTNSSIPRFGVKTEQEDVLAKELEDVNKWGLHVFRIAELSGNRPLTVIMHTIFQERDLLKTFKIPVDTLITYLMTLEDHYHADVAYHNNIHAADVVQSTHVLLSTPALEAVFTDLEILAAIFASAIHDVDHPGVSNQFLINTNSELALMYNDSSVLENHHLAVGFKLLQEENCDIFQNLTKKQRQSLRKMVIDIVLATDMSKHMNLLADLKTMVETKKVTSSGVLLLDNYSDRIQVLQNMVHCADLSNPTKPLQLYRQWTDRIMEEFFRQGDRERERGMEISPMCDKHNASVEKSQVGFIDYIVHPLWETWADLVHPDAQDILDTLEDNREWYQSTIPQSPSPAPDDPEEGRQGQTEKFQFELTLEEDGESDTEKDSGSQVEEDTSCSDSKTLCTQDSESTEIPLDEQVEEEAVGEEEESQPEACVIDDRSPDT
T1 sequence (Q08499 303-809): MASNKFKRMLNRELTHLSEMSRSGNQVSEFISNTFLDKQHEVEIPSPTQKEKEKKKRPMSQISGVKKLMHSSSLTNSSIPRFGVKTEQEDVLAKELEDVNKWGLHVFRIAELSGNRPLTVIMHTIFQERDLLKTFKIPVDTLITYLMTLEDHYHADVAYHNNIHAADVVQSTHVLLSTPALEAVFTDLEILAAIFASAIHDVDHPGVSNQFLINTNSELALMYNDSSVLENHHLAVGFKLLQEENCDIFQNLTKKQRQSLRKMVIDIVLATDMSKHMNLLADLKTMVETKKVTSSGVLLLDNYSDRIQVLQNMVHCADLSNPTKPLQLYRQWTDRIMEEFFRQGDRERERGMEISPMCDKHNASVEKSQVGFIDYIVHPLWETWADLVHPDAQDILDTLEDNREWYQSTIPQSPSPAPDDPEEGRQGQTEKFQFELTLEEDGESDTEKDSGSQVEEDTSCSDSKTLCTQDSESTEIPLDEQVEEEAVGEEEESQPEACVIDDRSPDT

Row | SMILES | IC50 (PDE4D2) | IC50 (PDE4D3) | IC50 [1] | IC50 (PDE4D) | CELL KILLING EC50 (μM) Lung H82 (H82) | CELL KILLING EC50 (μM) Breast MCF7 (MCF7) | EC50 (HeLa; [2]) | EC50 (DU145; [3]) | EC50 (SW480) | also measured
1 | C=C(C)Cn1c(SCC(=O)c2cccs2)nc2sc3c(c2c1=O)CCCC3 [EGM, Eggmanone] | 1.3 µM | 1.1 µM |  |  | UnCh | UnCh | 12.4 µM | 41.9 µM | 0.534 µM | Hh-deficient mutant phenotype in embryos (zebrafish embryos): exhibited range of phenotypes found in Hh pathway mutants; Mode of inhibition (Lineweaver-Burk, Eadie Hofstee) (PDE4D3): competitive mode of inhibition; also recorded: acts in a competitive manner; Sonic hedgehog (SHH)-responsive Gli-luciferase reporter activity [1]: inhibited Sonic hedgehog (SHH)-responsive Gli-luciferase (Gli-Luc) reporter activity in a dose-dependent manner; Purmorphamine-induced Gli-Luc reporter activity [1]: inhibited purmorphamine (Purm, 3 μM)-induced Gli-Luc reporter activity in a dose-dependent manner
2 | C=C(C)Cn1c(SCC(=O)c2ccccc2)nc2sc3c(c2c1=O)CCCC3 [Formula 9g] |  |  |  |  |  |  |  |  |  | IC50 (PDE4D; mean ± SEM, normalized to DMSO): 0.965 ± 0.1 µM
3 | CCCn1c(SCC(=O)c2cccs2)nc2sc3c(c2c1=O)CCCC3 [Formula 9e] |  |  |  |  |  |  |  |  |  | IC50 (PDE4D; mean ± SEM, normalized to DMSO): 0.486 ± 0.001 µM
4 | O=C(CSc1nc2sc3c(c2c(=O)n1C1CC1)CCCC3)c1cccs1 [JEH-3-039-2] |  | > 100 µM |  |  |  |  |  |  |  | ZF Phenotype EC100 (zebrafish embryos; wild-type embryonic zebrafish, dosed 5 hpf): 0.1 µM
5 | C=C(C)Cn1c(SCC(=O)c2cccs2)nc2sc3c(c2c1=O)CCCC3 [Eggmanone, 3-(2-methylallyl)-2-((2-oxo-2-(thiophen-2-yl)ethyl)thio)-5,6,7,8-tetrahydrobenzo[4,5]thieno[2,3-d]pyrimidine-4(3H)-one] |  |  | 1.5 µM | 0.89 µM and 0.893 µM |  |  |  |  |  | Hh-deficient mutant phenotype in embryos (zebrafish embryos): caused a number of phenotypes resembling those of Hh-deficient mutant embryos; also recorded: exhibited range of phenotypes found in Hh pathway mutants; Hh-deficient mutant phenotype in embryos (zebrafish embryos; listed as eggmanone): caused a number of phenotypes resembling those of Hh-deficient mutant embryos; Inhibition of super-short isoform PDE4D2 (PDE4D2): not inhibited; Potency against PDE4D3 versus any tested PDE not of the PDE4 family (PDE4D3): at least 60 fold; Mode of inhibition (Lineweaver-Burk, Eadie Hofstee) (PDE4D3): exhibited a competitive mode of inhibition; Sonic hedgehog (SHH)-responsive Gli-luciferase reporter activity [1]: inhibited Hh-inducible Gli-responsive luciferase (Gli-Luc) activity in a dose dependent manner; Sonic hedgehog (SHH)-responsive Gli-luciferase reporter activity ([1]; listed as eggmanone): inhibited Hh-inducible Gli-responsive luciferase (Gli-Luc) activity in a dose dependent manner; Purmorphamine-induced Gli-Luc reporter activity [1]: blocked Gli-Luc reporter and ptch1 induction by purmorphamine
6 | C=C(C)Cn1c(SCC(=O)c2ccccc2)nc2sc3c(c2c1=O)CCCC3 [JEH-3-045-1] | 14 µM | 18 µM |  |  |  |  |  |  |  | 

Now from value to compound, other results behind:

Row | IC50 (PDE4D2) | IC50 (PDE4D3) | IC50 [1] | IC50 (PDE4D) | SMILES | CELL KILLING EC50 (μM) Lung H82 (H82) | CELL KILLING EC50 (μM) Breast MCF7 (MCF7) | EC50 (HeLa; [2]) | EC50 (DU145; [3]) | EC50 (SW480) | also measured
7 | > 100 µM | > 100 µM |  |  | C=CCn1c(SCC(=O)c2cccs2)nc2sc3c(c2c1=O)CCCC3 [JEH-3-039-3] | UnCh | UnCh | 36.9 µM | 71 µM | 3.63 µM | 
8 | 6.4 µM | 15 µM |  |  | C=C(C)Cn1c(SCC(=O)c2nccs2)nc2sc3c(c2c1=O)CCCC3 [JEH-3-069-1] | UnCh | UnCh | 100 µM | 47.5 µM | 6.92 µM | EC50 [1]: 10 to 20 µM
9 | 16 µM | 24 µM | 10 µM | 16 µM | C=C(C)Cn1c(SCC(=O)c2ccncc2)nc2sc3c(c2c1=O)CCCC3 [JEH-3-048-1] | UnCh | UnCh | 23.6 µM | 100 µM | 1.87 µM | 
10 | 4.9 µM | 23 µM | 15 µM | 4.9 µM | C=C(C)Cn1c(SCC(=O)c2ccccn2)nc2sc3c(c2c1=O)CCCC3 [JEH-3-063] | UnCh | UnCh | 9.18 µM | 0.684 µM | 8.05 µM | EC50 [1]: 10 to 20 µM; EC50 (HeLa; 72 h, read-out: EC50 (50% reduction of viable cell count at 72 hours), Human Cervical Adenocarcinoma): 9.2 µM; EC50 (DU145; DU-145, 72 h, read-out: EC50 (50% reduction of viable cell count at 72 hours), DU145, Human Prostate Adenocarcinoma): 0.684 µM
